The results in this text go back to ChEMBL document CHEMBL1201862, “PubChem BioAssay data set” (2004).

For experiment [1], the target named is T1, Tyrosine-protein phosphatase non-receptor type 22 (Homo sapiens, UniProt Q9Y2R2).
T1 sequence (Q9Y2R2 whole entry): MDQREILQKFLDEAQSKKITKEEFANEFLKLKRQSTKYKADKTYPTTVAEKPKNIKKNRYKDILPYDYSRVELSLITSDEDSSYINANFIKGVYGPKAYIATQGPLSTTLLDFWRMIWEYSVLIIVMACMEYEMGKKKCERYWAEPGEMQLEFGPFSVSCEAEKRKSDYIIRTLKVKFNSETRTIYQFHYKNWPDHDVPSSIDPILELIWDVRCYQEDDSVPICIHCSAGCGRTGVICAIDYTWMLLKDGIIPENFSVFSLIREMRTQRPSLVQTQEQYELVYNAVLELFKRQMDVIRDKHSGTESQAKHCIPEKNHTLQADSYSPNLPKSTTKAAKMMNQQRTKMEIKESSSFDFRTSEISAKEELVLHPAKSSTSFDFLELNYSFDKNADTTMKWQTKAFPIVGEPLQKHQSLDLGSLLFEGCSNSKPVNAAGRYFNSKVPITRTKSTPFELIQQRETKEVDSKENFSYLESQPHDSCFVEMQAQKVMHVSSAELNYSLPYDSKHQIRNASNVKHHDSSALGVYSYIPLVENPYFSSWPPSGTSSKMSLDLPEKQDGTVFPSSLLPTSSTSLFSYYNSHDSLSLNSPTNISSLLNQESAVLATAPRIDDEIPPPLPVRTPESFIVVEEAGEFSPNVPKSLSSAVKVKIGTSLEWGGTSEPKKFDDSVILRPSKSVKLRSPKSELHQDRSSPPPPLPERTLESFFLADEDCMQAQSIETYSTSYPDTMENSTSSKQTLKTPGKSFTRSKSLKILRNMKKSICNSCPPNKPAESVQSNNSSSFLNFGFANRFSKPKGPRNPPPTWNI
It counts as functional.

In experiment [2] the target is T2, Tyrosine-protein phosphatase non-receptor type 7 (Homo sapiens, UniProt P35236).
T2 sequence (P35236 whole entry): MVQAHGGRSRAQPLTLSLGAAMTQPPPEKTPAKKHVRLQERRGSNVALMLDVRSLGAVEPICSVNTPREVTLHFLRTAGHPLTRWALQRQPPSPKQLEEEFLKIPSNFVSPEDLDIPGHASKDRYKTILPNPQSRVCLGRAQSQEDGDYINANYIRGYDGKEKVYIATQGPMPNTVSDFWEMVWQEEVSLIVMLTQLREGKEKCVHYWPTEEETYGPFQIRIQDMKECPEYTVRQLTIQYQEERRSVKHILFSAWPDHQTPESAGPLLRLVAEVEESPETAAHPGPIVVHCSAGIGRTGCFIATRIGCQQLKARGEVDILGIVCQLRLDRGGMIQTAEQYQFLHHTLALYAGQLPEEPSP
In kind it is functional.

For experiment [3], the target named is T1, Tyrosine-protein phosphatase non-receptor type 22. In kind it is functional. This is another data set of the same source.
Experiment [4] in a line: Counterscreen for AddAB inhibitors: absorbance-based bacterial cell-based high throughput dose response assay for inhibitors of bacterial viability. [Related pubchem assays (depositor defined):AID435030, AID449728, AID449731, AID488942, AID488955, AID488956]. In kind it is functional.
A short description of experiment [5]: Luminescence Cell-Based Dose Response HTS to Identify Inhibitors of 5'UTR Stem-Loop Driven Prion Protein mRNA Translation in H4 Neuroglioblastoma Cells. [Related pubchem assays: 1827 (Project Summary), 1813 (Primary HTS)]. It counts as functional.
A short description of experiment [6]: inhibitors of firefly luciferase expression or activity, dose response, H4 neuroglioma cells, luminescence (AID 1990). In kind it is functional, cell-based.
Experiment [7] can be described thus: inhibitors of SNCA 5'UTR-driven reporter translation, confirmation, H4 neuroglioma cells, luminescence (AID 1988). In kind it is functional, cell-based.
For the next experiment, the target named is Phospholipase A2 (Homo sapiens, UniProt P04054). In kind it is functional.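 Also: confirmatory dose-response counterscreen on phospholipase A2, testing hits that came from an ultra-high-throughput screen for ATG4B inhibitors.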
Chain of Phospholipase A2 (P04054 whole entry): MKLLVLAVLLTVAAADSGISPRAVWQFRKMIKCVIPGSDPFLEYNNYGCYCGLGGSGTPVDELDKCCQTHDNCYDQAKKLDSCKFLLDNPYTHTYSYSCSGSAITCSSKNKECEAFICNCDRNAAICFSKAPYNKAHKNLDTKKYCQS
The nature of experiment [8]: Luminescent dose response cell-based high throughput screening assay for inhibitors of the Janus kinase 2 mutant JAK2V617F. [Related pubchem assays: 1446 (Primary screen.), 1521 (Confirmation assay.), 1486 (Counter screen.)]. In kind it is functional.
Another experiment concerns the target T3, Cysteine protease ATG4B (Homo sapiens, UniProt Q9Y4P1).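 Also: Fluorescence-based dose-response confirmation assay measuring inhibition of ATG4B activity.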
T3 sequence (Q9Y4P1 whole entry): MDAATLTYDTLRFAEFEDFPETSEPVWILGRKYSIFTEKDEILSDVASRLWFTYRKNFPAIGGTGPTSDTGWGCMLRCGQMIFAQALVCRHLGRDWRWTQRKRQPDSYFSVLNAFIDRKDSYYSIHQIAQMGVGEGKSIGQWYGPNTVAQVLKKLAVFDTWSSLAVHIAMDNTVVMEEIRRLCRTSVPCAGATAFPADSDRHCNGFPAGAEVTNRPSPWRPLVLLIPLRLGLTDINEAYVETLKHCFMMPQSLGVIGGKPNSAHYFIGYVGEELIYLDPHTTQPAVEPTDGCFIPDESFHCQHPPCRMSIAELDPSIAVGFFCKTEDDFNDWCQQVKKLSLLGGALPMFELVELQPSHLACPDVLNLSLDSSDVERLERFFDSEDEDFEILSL
It counts as functional.

The nature of experiment [9]: Luminescence Cell-Based Dose Retest to Confirm Inhibitors of Cancer Stem Cells. [Related pubchem assays (depositor defined):AID2717, AID2721]. It counts as functional. To be noted: Homo sapiens.
A further experiment concerns the target Exodeoxyribonuclease V (Escherichia coli (strain K12), UniProt P04993+P07648+P08394). Nature of the experiment: E. coli RecBCD inhibitors, dose response, counter-screen for AddAB inhibitor project, absorbance, V66 E. coli, mutant T4 phage (AID 492957). In kind it is functional, cell-based, Escherichia coli str. K-12 substr. MG1655.
The test system of another experiment is H9c2. Nature of the experiment: cells. In kind it is functional, cell-based. The following applies: Rattus norvegicus, H9c2, Myocardium.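 Also: confirmatory concentration-response retest of ultra-high-throughput screening hits for modulation of myocardial damage; cell death induced by hydrogen peroxide oxidative stress; compound pretreatment for 60 min then peroxide exposure for 2 h; potency is for protecting the cells against peroxide damage rather than for killing them.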
Experiment [10] can be described thus: human group III sPLA2 inhibitors, dose response, biochemical, QFRET, IC50 (AID 743457).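 Also: green fluorescence rise as the enzyme cleaves BODIPY PC-A2 in liposomes; potency for inhibition of the enzyme.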
The target of experiment [11] is Heat shock protein HSP 90-alpha (Homo sapiens, UniProt P07900). It counts as functional, organism-based.
A further experiment has as its system INS1. The experiment in a line: beta cell apoptosis inhibitors, cytokine rescue, dose response, luminescence, retest (AID 449756).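 Also: cell death triggered by IL-1 beta plus TNF-alpha plus IFN-gamma mixture; protective hits raise ATP signal compared with cytokine alone wells.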 In kind it is functional, cell-based. To be noted: Rattus norvegicus.
Experiment [12] concerns the target T4, Apoptotic protease-activating factor 1 (Homo sapiens, UniProt O14727).
T4 sequence (O14727 whole entry): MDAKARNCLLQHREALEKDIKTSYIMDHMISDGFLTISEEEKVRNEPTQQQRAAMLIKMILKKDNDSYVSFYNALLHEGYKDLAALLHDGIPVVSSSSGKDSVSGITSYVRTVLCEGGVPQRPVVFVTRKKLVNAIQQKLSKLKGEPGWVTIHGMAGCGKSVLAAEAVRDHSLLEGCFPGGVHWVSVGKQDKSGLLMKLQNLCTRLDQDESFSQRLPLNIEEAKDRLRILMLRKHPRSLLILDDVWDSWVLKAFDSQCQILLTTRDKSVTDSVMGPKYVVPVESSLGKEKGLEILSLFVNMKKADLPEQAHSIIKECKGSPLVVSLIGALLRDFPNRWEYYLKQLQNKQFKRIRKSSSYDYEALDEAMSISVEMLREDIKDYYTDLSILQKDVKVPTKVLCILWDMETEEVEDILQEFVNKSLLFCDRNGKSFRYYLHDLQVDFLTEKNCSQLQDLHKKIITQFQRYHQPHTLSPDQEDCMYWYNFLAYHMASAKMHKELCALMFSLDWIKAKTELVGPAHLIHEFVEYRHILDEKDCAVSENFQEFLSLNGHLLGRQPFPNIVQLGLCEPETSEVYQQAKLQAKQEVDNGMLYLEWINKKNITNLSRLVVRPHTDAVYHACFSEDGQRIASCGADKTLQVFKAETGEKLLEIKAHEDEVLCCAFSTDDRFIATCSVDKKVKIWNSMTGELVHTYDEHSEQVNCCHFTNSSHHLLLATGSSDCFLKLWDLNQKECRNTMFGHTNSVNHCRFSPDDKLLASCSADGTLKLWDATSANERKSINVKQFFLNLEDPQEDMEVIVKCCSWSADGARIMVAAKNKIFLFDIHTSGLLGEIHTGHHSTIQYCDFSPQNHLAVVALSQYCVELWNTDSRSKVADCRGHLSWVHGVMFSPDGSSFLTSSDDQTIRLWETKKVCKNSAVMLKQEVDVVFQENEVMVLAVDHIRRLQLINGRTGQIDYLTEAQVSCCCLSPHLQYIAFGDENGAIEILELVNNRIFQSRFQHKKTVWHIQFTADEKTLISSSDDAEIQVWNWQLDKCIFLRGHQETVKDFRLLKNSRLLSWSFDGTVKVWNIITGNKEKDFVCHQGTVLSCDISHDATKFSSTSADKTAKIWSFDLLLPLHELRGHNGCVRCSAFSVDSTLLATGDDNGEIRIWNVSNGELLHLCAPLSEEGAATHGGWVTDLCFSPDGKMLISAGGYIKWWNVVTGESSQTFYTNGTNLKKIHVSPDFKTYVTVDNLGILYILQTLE
It counts as functional.

Experiment [13] concerns the target RNA-editing ligase 1, mitochondrial (Trypanosoma brucei brucei, UniProt P86926). Nature of the experiment: TbREL1 ligase inhibitors, dose response, biochemical, fluorescence, Trypanosoma brucei (AID 1117295). In kind it is functional.
The target in experiment [14] is T5, Rac GTPase-activating protein 1 (Homo sapiens, UniProt Q9H0H5).
T5 sequence (Q9H0H5 whole entry): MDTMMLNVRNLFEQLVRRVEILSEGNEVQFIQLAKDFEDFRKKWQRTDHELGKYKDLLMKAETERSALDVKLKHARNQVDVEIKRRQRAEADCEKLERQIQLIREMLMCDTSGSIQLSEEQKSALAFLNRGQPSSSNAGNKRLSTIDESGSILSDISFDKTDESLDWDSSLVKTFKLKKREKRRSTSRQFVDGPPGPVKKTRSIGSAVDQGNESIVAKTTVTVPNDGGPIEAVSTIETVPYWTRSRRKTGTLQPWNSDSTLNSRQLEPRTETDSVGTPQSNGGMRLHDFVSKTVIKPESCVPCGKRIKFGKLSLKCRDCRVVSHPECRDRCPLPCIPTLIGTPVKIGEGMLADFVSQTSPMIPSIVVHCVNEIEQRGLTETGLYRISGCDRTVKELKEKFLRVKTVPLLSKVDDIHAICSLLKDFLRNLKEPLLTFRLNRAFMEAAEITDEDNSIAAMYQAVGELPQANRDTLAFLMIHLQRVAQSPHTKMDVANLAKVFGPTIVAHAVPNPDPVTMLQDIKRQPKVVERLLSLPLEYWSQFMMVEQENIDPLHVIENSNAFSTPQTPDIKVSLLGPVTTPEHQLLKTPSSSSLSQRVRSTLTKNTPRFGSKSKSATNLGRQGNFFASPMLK
The experiment in a line: MgcRacGAP GTPase-activating activity inhibitors, confirmation, biochemical, ADP Hunter fluorescence, primary and confirmatory (AID 624330). In kind it is functional.

Experiment [15] concerns the target Lysine-specific demethylase 4C (Homo sapiens, UniProt Q9H3R0). The experiment in a line: GASC-1 (JMJD2C) histone demethylase inhibitors, dose response, biochemical, DELFIA europium, cherry-picked samples (AID 488835). It counts as functional.
In experiment [16] the target is DNA dC->dU-editing enzyme APOBEC-3G (Homo sapiens, UniProt Q9HC16). The experiment in a line: Dose Response confirmation of small molecule APOBEC3G DNA Deaminase Inhibitors via a fluorescence-based single-stranded DNA deaminase assay. [Related pubchem assays (depositor defined):AID493012, AID493028]. In kind it is functional.
Chain of DNA dC->dU-editing enzyme APOBEC-3G (Q9HC16 whole entry): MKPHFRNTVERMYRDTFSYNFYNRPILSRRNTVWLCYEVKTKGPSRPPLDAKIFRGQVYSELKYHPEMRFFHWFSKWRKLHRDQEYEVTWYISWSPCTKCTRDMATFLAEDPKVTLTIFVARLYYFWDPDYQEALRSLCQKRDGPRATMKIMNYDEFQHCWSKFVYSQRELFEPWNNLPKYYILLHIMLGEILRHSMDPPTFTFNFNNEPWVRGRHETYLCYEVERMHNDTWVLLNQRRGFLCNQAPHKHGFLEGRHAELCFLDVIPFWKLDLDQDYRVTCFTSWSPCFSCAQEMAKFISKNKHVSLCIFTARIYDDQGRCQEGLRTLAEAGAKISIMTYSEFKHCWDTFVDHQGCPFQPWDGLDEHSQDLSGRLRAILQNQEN
Experiment [17] addresses DNA dC->dU-editing enzyme APOBEC-3A (Homo sapiens, UniProt P31941). Nature of the experiment: APOBEC3A DNA deaminase inhibitors, dose response, biochemical (AID 504722). It counts as functional.

Activity calls are given as the source filed them.

Chain of Exodeoxyribonuclease V (P04993 whole entry): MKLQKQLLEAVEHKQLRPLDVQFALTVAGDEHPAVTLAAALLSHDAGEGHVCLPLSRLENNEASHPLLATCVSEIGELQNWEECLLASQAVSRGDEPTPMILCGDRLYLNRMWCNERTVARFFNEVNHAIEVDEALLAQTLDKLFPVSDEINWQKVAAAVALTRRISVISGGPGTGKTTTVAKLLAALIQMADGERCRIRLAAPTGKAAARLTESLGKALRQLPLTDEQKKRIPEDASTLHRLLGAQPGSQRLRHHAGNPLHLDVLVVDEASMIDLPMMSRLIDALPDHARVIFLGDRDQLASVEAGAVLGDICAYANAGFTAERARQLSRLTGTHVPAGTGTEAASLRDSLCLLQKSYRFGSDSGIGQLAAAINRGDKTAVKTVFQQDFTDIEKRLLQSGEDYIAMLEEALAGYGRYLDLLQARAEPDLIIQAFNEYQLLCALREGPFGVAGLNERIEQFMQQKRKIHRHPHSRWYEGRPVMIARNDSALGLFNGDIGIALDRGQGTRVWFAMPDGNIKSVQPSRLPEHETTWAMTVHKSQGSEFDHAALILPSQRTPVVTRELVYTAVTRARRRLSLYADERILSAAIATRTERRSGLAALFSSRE
Chain of Exodeoxyribonuclease V (P07648 whole entry): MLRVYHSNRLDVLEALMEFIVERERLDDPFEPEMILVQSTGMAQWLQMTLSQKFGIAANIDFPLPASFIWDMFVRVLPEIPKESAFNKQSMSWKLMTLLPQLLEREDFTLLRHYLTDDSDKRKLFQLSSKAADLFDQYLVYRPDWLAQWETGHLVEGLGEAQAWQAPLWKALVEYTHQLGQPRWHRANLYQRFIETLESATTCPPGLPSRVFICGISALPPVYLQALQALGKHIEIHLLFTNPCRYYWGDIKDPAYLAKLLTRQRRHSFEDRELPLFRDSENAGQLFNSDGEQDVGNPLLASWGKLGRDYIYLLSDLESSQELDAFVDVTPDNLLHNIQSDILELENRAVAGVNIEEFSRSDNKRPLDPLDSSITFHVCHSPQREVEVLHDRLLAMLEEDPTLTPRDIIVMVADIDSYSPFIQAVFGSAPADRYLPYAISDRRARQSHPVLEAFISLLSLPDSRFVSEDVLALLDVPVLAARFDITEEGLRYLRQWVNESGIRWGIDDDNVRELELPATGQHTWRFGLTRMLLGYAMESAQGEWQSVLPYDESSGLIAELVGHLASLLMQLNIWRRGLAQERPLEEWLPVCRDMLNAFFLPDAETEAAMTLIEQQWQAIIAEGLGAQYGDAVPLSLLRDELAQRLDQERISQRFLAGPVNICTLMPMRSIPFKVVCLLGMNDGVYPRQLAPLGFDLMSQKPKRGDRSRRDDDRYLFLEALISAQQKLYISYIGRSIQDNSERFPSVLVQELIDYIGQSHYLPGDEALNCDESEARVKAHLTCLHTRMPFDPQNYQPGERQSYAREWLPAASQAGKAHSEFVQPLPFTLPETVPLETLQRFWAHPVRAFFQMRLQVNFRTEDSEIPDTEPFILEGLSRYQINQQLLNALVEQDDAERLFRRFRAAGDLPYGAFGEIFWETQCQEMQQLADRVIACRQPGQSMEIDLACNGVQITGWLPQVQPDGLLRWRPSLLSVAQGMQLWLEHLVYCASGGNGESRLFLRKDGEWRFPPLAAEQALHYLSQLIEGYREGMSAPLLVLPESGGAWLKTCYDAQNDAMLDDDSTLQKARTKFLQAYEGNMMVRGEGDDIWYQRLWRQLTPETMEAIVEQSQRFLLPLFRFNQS
Chain of Exodeoxyribonuclease V (P08394 whole entry): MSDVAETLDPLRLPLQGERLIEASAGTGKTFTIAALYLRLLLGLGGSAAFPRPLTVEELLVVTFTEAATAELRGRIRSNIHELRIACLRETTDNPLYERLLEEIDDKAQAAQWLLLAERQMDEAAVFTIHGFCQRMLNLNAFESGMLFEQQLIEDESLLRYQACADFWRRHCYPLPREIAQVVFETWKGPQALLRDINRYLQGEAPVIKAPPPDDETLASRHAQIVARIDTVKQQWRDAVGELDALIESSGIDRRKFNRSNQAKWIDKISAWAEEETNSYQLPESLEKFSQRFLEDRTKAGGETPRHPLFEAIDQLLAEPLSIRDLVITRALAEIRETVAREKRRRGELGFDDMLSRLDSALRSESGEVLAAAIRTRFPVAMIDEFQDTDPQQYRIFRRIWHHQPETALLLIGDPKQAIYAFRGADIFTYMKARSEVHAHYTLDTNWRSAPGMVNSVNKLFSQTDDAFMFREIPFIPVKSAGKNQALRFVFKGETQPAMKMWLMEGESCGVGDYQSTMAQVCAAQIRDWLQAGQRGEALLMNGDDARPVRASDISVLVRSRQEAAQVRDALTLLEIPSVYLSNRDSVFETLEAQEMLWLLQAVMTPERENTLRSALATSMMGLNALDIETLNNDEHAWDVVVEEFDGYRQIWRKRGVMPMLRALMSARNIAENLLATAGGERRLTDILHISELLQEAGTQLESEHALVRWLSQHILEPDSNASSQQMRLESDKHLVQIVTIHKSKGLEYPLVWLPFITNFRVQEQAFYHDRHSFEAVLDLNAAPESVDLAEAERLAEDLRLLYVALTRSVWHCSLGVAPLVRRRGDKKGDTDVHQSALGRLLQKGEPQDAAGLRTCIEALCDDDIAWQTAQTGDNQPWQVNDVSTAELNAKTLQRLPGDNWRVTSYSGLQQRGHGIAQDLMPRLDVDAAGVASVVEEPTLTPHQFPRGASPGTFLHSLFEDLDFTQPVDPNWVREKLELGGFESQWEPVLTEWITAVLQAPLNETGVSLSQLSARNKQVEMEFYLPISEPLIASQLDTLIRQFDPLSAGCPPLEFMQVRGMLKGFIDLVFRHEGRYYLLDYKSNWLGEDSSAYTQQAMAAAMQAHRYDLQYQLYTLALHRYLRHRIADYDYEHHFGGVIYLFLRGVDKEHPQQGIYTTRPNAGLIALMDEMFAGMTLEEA
Chain of RNA-editing ligase 1, mitochondrial (P86926 whole entry): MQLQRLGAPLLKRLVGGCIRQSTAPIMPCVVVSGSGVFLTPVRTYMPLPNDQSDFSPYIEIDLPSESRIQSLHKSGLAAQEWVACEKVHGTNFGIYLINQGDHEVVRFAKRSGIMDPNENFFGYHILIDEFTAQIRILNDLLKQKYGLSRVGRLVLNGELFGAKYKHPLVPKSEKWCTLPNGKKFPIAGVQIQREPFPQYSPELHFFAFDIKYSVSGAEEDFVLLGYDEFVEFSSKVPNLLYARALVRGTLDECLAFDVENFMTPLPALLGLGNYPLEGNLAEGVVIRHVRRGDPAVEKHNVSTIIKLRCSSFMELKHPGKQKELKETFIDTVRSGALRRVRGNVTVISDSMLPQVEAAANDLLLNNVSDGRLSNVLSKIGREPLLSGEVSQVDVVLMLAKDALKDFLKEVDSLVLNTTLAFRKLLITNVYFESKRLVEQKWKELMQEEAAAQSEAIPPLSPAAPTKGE
Chain of DNA dC->dU-editing enzyme APOBEC-3A (P31941 whole entry): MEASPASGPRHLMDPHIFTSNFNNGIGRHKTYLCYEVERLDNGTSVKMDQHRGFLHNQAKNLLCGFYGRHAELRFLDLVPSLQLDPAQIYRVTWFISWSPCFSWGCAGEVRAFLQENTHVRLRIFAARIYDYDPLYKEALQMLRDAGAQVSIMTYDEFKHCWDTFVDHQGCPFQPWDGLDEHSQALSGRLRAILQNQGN

For `NC(=O)Nc1ccccc1C(=O)NCCc1ccccc1`, the IC50 in [1], in experiment [2] and in [3] was > 79.4 µM (inactive) each time.

Take `COc1cccc(/C=N/NC(=O)c2[nH]c(C)c(C(=O)N/N=C/c3cccc(OC)c3O)c2C)c1O`: the IC50 in [4] is > 119 µM (inactive); on Phospholipase A2 it was 9.88 µM (active); in experiment [8] it was 2.8 µM (active); at Cysteine protease ATG4B, 7.03 µM (active); on Exodeoxyribonuclease V, > 119 µM (inactive). For the same compound, the EC50 is 18.9 µM (active) in [5], 9.94 µM (active) in experiment [6] and 15.3 µM (active) in [7]. Further, the half-maximal activity concentration (AC50) in [9] was 2.44 µM (active).

With `Cc1onc(-c2ccccc2)c1C(=O)NC(=S)NNC(=O)c1ccccc1O`, the IC50 was > 119 µM (inactive) in experiment [4], > 79 µM (inactive) with H9c2, > 122 µM (inactive) in [10] and > 119 µM (inactive) at Exodeoxyribonuclease V. Besides, the half-maximal activity concentration (AC50) in experiment [11] is 2.92 µM (active); in the experiment with INS1 it was 7.21 µM (active).

For the compound `COc1ccc(N(CC(=O)NC(C)C)C(=O)CCC(=O)Nc2ccccn2)cc1`, the IC50 in experiment [1], in [2] and in [3] was > 79.4 µM (inactive) throughout.

`Cc1nnc(N=c2ssnc2Cl)o1`: the IC50 in [12] is 16 µM (active); in [13] it was 79 µM (inactive); in [14], 69.6 µM (active); in experiment [16] it was 4.6 µM (active); in experiment [17], > 100 µM (inactive). For the same compound, the concentration at half-maximal activity (AC50) is 3.13 µM (active) in [11], 3.77 µM (active) in the experiment with INS1 and 6.06 µM (active) in experiment [15].
